# Reference: patent US11802120B2, “Fused cyclic urea derivatives as CRHR2 antagonist” (RaQualia Pharma Inc., priority 2018, dated 2023)
# Experiments:
# Assay type in all cases: cell-based
# CRHR2 = target: T1, CRHR2 (Homo sapiens, UniProt Q13324); test: CRHR2 antagonistic activity (inhibitory activity against CRHR2)
# T1 sequence (Q13324 1-411): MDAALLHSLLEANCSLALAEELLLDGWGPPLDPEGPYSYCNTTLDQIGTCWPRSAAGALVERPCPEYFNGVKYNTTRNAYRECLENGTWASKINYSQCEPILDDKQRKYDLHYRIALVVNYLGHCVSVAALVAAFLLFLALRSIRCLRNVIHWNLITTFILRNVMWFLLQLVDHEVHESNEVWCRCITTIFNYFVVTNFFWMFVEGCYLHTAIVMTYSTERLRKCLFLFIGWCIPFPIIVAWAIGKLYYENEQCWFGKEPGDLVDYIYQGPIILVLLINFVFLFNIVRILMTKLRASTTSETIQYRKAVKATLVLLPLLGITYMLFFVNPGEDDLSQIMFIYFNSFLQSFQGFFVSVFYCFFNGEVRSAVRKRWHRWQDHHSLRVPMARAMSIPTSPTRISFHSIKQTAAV
# human CRHR2-alpha = target: T2, human CRHR2-alpha (Homo sapiens, UniProt Q13324); test: cAMP functional assay for human CRHR2 (LANCE Ultra cAMP, TR-FRET); conditions: CHO-K1 cells expressing human CRHR2-alpha, agonist human urocortin2 at EC80, cAMP; read-out: IC50 against CRHR2
# T2 sequence (Q13324 1-411): T1 sequence (Q13324 1-411)
# Summary of the method: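 Inhibition of agonist-driven cAMP was assessed in recombinant CHO-K1 cells at 25° C, using 30 min compound pretreatment and 30 min stimulation with EC80 human urocortin2 (CRHR2) or CRF (CRHR1). IC50 came from dose-response fitting.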
# human CRHR1-beta = target: T3, human CRHR1-beta (Homo sapiens, UniProt P34998); test: cAMP functional assay for human CRHR1 (LANCE Ultra cAMP, TR-FRET); conditions: CHO-K1 cells expressing human CRHR1-beta, agonist CRF at EC80, cAMP; read-out: IC50 against CRHR1
# T3 sequence (P34998 24-444 isoform P34998-1 limits assumed): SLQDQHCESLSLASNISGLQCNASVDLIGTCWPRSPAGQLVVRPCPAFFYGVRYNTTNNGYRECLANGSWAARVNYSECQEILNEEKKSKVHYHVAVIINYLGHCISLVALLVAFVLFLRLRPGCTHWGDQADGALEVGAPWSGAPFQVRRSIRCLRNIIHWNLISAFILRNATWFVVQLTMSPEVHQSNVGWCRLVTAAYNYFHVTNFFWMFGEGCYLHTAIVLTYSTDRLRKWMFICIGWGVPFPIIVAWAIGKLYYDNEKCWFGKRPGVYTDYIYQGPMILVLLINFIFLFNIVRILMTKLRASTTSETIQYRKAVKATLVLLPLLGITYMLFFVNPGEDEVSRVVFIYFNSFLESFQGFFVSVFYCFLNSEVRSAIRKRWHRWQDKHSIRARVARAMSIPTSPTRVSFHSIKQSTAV
# Protocol: cAMP functional assay for human CRHR1 and CRHR2
# The ability of the compounds of this invention to inhibit either CRHR2 or CRHR1 is assessed by 3′,5′-cyclic adenosine monophosphate (cAMP) production in cells using the LANCE Ultra cAMP assay kit (ParkinElmer), which are designed based on the homogeneous time-resolved fluorescence resonance energy transfer (TR-FRET) immunoassay.
# CHO-K1 (Chinese hamster ovary) cells stably expressing either human CRHR2-alpha (DiscoveRX, Cat. 95-0048C2) or human CRHR1-beta (DiscoveRX, Cat. 95-0047C2) are grown in HAM's F12 media supplemented with 10% fetal bovine serum (FBS), 100 units/mL penicillin, 100 microg/mL hygromycin and 0.5 microg/mL geneticin at 37° C. in 5% CO2 humidified incubator to 80% confluence. After 7 hours starvation treatment in culture media containing 0.1% FBS, the cells are washed with Hanks balanced salt solution (HBSS) and cryopreserved.
# For cAMP assay, frozen cells are thawed and washed with HBSS, followed by resuspended in assay buffer (HBSS containing 0.1% bovine serum albumin, 0.5 mM isobutylmethylxanthine and 5 mM Hepes, pH 7.4) at the appropriate concentration for the assay. The cell suspensions are plated on 384-well microplates (Greiner Bio-One) at a density of 4,000 cells per well. After preincubating the cells with various concentrations of the compounds for 30 min at 25° C., an assay buffer containing EC80 concentration of each agonist is added and the cells are incubated for 30 min at 25° C. Human urocortin2 (Peptide Institute) and CRF (Peptide Institute) are used as agonists for CRHR2 and CRHR1, respectively. For the termination of assay, europium-labeled cAMP tracer and ULight (registered trademark) dye labeled cAMP antibodies, both prepared with Lance-Ultra cAMP detection reagent (Perkin Elmer) are added in the plate and incubate for 60 min at 25° C. After incubation, TR-FRET signal is detected by EnVision plate reader (PerkinElmer). The IC50 values for compounds are calculated from dose-response curves by fitting the percent inhibition using XLfit (ID Business Solutions).
IC50 (CRHR2),IC50 (human CRHR2-alpha),IC50 (human CRHR1-beta),SMILES
0.06 µM,< 0.3 µM,< 1 µM,"COc1ccc(-n2c(=O)n(C[C@H]3CC[C@H](NC(=O)c4cc(Cl)cnc4C)CC3)c3ccccc32)cn1 [Example 30, 5-chloro-N-((1r,4r)-4-((3-(6-methoxypyridin-3-yl)-2-oxo-2,3-dihydro-1H-benzo[d]imidazol-1-yl)methyl)cyclohexyl)-2-methylnicotinamide]"
0.06 µM,< 0.3 µM,–,"Cc1ncc(Cl)cc1C(=O)N[C@H]1CC[C@H](Cn2c(=O)n(-c3cnc4c(ccn4C)c3)c3ccccc32)CC1 [Example 148, 5-chloro-2-methyl-N-((1r,4r)-4-((3-(1-methyl-1H-pyrrolo [2,3-b]pyridin-5-yl)-2-oxo-2,3-dihydro-1H-benzo[d]imidazol-1-yl)methyl)cyclo-hexyl)nicotinamide]"
0.28 µM,< 0.3 µM,–,"Cc1ncc(Cl)cc1C(=O)N[C@H]1CC[C@H](Cn2c(=O)n(-c3cccnc3)c3ccccc32)CC1 [Example 156, 5-chloro-2-methyl-N-((1r,4r)-4-((2-oxo-3-(pyridin-3-yl)-2,3-dihydro-1H-benzo[d]imidazol-1-yl)methyl)cyclo-hexyl)nicotinamide]"
